Source: US20220265775A1, “COMPOSITIONS AND METHODS FOR TREATING PULMONARY EDEMA OR LUNG INFLAMMATION” (priority 2019, published 2022)

Tested on: RLE-6TN cells
Assay: RLE-6TN cell survival under hyperoxia and recovery, viable cells counted by trypan blue exclusion
Type: cell-based, rat
Description: FIG. 7. […] The cells were cultured in DMEM/F12 with 10% FBS in 21% O2 and 5% CO2 overnight. […] The viable cells are counted immediately after 72-hour hyperoxia exposure. Cell viability is assessed with trypan blue. The amount of viable cells under specific conditions is presented as a percentage of the cell number from hyperoxia alone. Data are mean±s.d. of four independent experiments with *=P<0.05; **=P<0.01.
FIG. 8. […] In both (A) and (B), the number of viable cells under specific conditions is presented as a percentage of the cell number related to hyperoxia alone in the same experiment. Data are mean s.d. of four independent experiments with *=P<0.05; **=P<0.01.
FIG. 10. HO-1 upregulation is required for T3-increased RLE-6TN cell survival in hyperoxia. […] The cells were then collected for Western Blot analysis. (B) The cells were incubated in 21% O2 and 5% CO2 for 72 hours in the present of HO-1 inhibitor Tin Protoporphyrin IX (10^−6M). […] Cell viability is assessed with trypan blue. The number of viable cells under specific conditions is presented as a percentage of the cell number related to hyperoxia alone. Data are mean±s.d. of three independent experiments with *=P<0.05; **=P<0.01.
FIG. 11. PI3K inhibitor wortmannin blocked T3-induced cell survival in hyperoxia. […] Cell viability is assessed with trypan blue. The number of viable cells under specific conditions is presented as a percentage of the cell number related to hyperoxia alone. Data are mean±s.d. of four independent experiments with *=P<0.05; **=P<0.01.
At the end of the hyperoxia exposure period, the viable cells were counted by trypan blue dye exclusion.

SMILES	AT2 cell number in room air (21% O2 for 72 hours, Tin Protoporphyrin IX 10^−6M)	effect on T3-caused increase in cell survival in hyperoxia (90% O2 72 hours, T3 10^−6M with Tin Protoporphyrin IX 10^−6M)	number of viable AT2 cells at 48 hours of recovery (90% oxygen for 24 or 48 hours, compound present only during recovery in 21% O2)	effect on cell survival under hyperoxia (90% oxygen for 72 hours, 10^−6M)
C=Cc1c2[n-]c(c1C)/C=c1\[n-]/c(c(C)c1C=C)=C\c1[n-]c(c(CCC(=O)O)c1C)C=c1[n-]/c(c(C)c1CCC(=O)O)=C\2.[Sn+4] [Tin protoporphyrin, Tin Protoporphyrin IX]	no effect on AT2 cell number in room air	blocked the T3-caused increase in cell survival and augmented cell death		
N[C@@H](Cc1ccc(Oc2cc(I)c(O)c(I)c2)c(I)c1)C(=O)O [rT3]			no protective effect	no role in cell survival
